Measured values published in ChEMBL document CHEMBL1201862, “PubChem BioAssay data set” (2004).
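96-well plates; 48 h exposure; 5 concentrations. Endpoints by linear interpolation between flanking doses. Not reached: highest tested concentration assigned. GI50 marks 50% less growth.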 Calls of active or inactive are those of the source. No stated cut-off is given here; in the data, active = GI50 up to about 1.1 µM and inactive = higher.

Assays:
Assay in all cases: growth of human tumour cells (NCI), 48 h
A549 = system: A549
DU-145 = system: DU-145
EKVX = system: EKVX
M14 = system: M14
MDA-N = system: MDA-N
Malme-3M = system: Malme-3M
NCI-H522 = system: NCI-H522
RPMI-8226 = system: RPMI-8226
SF-539 = system: SF-539
SK-MEL-2 = system: SK-MEL-2
SK-OV-3 = system: SK-OV-3
U-251 = system: U-251
UACC-257 = system: UACC-257
ACHN = system: ACHN
HCT-15 = system: HCT-15
HT-29 = system: HT-29
KM12 = system: KM12
NCI-H226 = system: NCI-H226
NCI-H460 = system: NCI-H460
SNB-75 = system: SNB-75

Row | Structure (SMILES) | GI50 (A549) | GI50 (DU-145) | GI50 (EKVX) | GI50 (M14) | GI50 (MDA-N) | GI50 (Malme-3M) | GI50 (NCI-H522) | GI50 (RPMI-8226) | GI50 (SF-539) | GI50 (SK-MEL-2) | GI50 (SK-OV-3) | GI50 (U-251) | GI50 (UACC-257) | GI50 (ACHN) | GI50 (HCT-15) | GI50 (HT-29) | GI50 (KM12) | GI50 (NCI-H226) | GI50 (NCI-H460) | GI50 (SNB-75)
1 | COc1c(-c2cccs2)oc2c(CC(=O)O)cccc2c1=O | > 100 µM (inactive) | > 100 µM (inactive) | > 100 µM (inactive) | > 100 µM (inactive) | > 100 µM (inactive) | > 100 µM (inactive) | > 100 µM (inactive) | 0.23 µM (active) | > 100 µM (inactive) | > 100 µM (inactive) | > 100 µM (inactive) | > 100 µM (inactive) | > 100 µM (inactive) |  |  |  |  |  |  | 
2 | COc1cc2c(cc1OC)C13CCN4CC5=CCOC(CC(=O)O)C(C5CC41)C3N2 (stereo not given) | > 100 µM (inactive) |  | > 100 µM (inactive) | > 100 µM (inactive) | > 100 µM (inactive) | > 100 µM (inactive) | > 100 µM (inactive) | > 100 µM (inactive) | > 100 µM (inactive) | > 100 µM (inactive) | > 100 µM (inactive) | > 100 µM (inactive) | > 100 µM (inactive) | > 100 µM (inactive) | > 100 µM | > 100 µM (inactive) | > 100 µM (inactive) | > 100 µM (inactive) | > 100 µM (inactive) | 
3 | COc1ccccc1NCc1nnc(CCCCCCCCc2nnc(CNc3ccccc3OC)o2)o1 | > 100 µM (inactive) | > 100 µM (inactive) | > 100 µM (inactive) | > 100 µM (inactive) | > 100 µM (inactive) | > 100 µM (inactive) | > 100 µM (inactive) | > 100 µM (inactive) |  | > 100 µM (inactive) | > 100 µM (inactive) | > 100 µM (inactive) | > 100 µM (inactive) | > 100 µM (inactive) | > 100 µM | > 100 µM (inactive) | > 100 µM (inactive) |  | > 100 µM (inactive) | > 100 µM (inactive)
4 | CC(C)(C)C(=O)OCC1CCC[N+]2(C)CCCCC12 (stereo not given) | > 100 µM (inactive) | > 100 µM (inactive) | > 100 µM (inactive) | > 100 µM (inactive) | > 100 µM (inactive) | > 100 µM (inactive) |  | > 100 µM (inactive) | > 100 µM (inactive) | > 100 µM (inactive) | > 100 µM (inactive) | > 100 µM (inactive) | > 100 µM (inactive) | > 100 µM (inactive) | > 100 µM | > 100 µM (inactive) | > 100 µM (inactive) | > 100 µM (inactive) | > 100 µM (inactive) | > 100 µM (inactive)
5 | COc1cc(C(=O)O)c(-c2cc3c(cc2C=O)OCO3)c(OC)c1OC | > 10 µM (inactive) | > 10 µM (inactive) |  | > 10 µM (inactive) | > 10 µM (inactive) | > 10 µM (inactive) | > 10 µM (inactive) | > 10 µM (inactive) | > 10 µM (inactive) |  | > 10 µM (inactive) | > 10 µM (inactive) | > 10 µM (inactive) | > 10 µM (inactive) | > 10 µM | > 10 µM (inactive) | > 10 µM (inactive) |  |  | > 10 µM (inactive)
6 | COc1ccc2c(c1)CC1COc3cc(OC)ccc3C1O2 (stereo not given) | > 100 µM (inactive) | > 100 µM (inactive) | > 100 µM (inactive) | > 100 µM (inactive) | > 100 µM (inactive) | > 100 µM (inactive) | 55 µM (inactive) | > 100 µM (inactive) | > 100 µM (inactive) | > 100 µM (inactive) | > 100 µM (inactive) | 36.6 µM (inactive) | > 100 µM (inactive) |  | > 100 µM | 65.3 µM (inactive) | > 100 µM (inactive) | 23 µM (inactive) |  | 
7 | Cc1ccc(C(=O)N/N=C(\N=N\c2cccc([N+](=O)[O-])c2)c2ccc(N(C)C)cc2)cc1 | > 100 µM (inactive) | 16.6 µM (inactive) | 25.2 µM (inactive) | 29.2 µM (inactive) | 20.7 µM (inactive) |  | 37.2 µM (inactive) | 61.9 µM (inactive) | > 100 µM (inactive) | > 100 µM (inactive) |  | > 100 µM (inactive) | 58.3 µM (inactive) |  | 50.7 µM | 46.5 µM (inactive) | 64.9 µM (inactive) | > 100 µM (inactive) | 57.7 µM (inactive) | 
8 | COc1ccc(C(=O)Cn2c(C(=O)/C=C/c3ccco3)nc3ccccc32)cc1 | 42.8 µM (inactive) | 38.5 µM (inactive) |  | 36.6 µM (inactive) | 26 µM (inactive) | 35.2 µM (inactive) |  | 19.3 µM (inactive) | 34 µM (inactive) | 17.5 µM (inactive) | 37.3 µM (inactive) | 32.7 µM (inactive) | 27.4 µM (inactive) | 42.8 µM (inactive) | 33.3 µM | 36.6 µM (inactive) | 28.3 µM (inactive) | 50.9 µM (inactive) | 23.5 µM (inactive) | 76.6 µM (inactive)
9 | CNC(=S)/N=c1/sc(NC)nc2sc3c(c12)CCCC3 |  | > 100 µM (inactive) | 76.6 µM (inactive) |  | > 100 µM (inactive) | > 100 µM (inactive) | 36.4 µM (inactive) | > 100 µM (inactive) |  | > 100 µM (inactive) | 64.6 µM (inactive) | 35.4 µM (inactive) | > 100 µM (inactive) | > 100 µM (inactive) | > 100 µM | > 100 µM (inactive) | > 100 µM (inactive) | > 100 µM (inactive) | > 100 µM (inactive) | 
10 | CCCCCCCCCCCCC(O)C(=O)O (stereo not given) | > 100 µM (inactive) | > 100 µM (inactive) |  | > 100 µM (inactive) | > 100 µM (inactive) | > 100 µM (inactive) | > 100 µM (inactive) | > 100 µM (inactive) | > 100 µM (inactive) | > 100 µM (inactive) | > 100 µM (inactive) | > 100 µM (inactive) | > 100 µM (inactive) | > 100 µM (inactive) | > 100 µM | > 100 µM (inactive) | > 100 µM (inactive) |  | > 100 µM (inactive) | > 100 µM (inactive)
11 | Cc1[nH]c(=O)[nH]c(=S)c1C(=O)NC(C)(CO)CO | > 100 µM (inactive) | > 100 µM (inactive) | > 100 µM (inactive) | > 100 µM (inactive) | > 100 µM (inactive) | > 100 µM (inactive) | > 100 µM (inactive) |  | > 100 µM (inactive) | > 100 µM (inactive) | > 100 µM (inactive) | > 100 µM (inactive) | > 100 µM (inactive) | > 100 µM (inactive) | > 100 µM | > 100 µM (inactive) | > 100 µM (inactive) | > 100 µM (inactive) | > 100 µM (inactive) | > 100 µM (inactive)
12 | Nc1nc(Cl)cc(OCC2(CO)CC=CC2)n1 | > 100 µM (inactive) | > 100 µM (inactive) | > 100 µM (inactive) |  | > 100 µM (inactive) | > 100 µM (inactive) | > 100 µM (inactive) | > 100 µM (inactive) | > 100 µM (inactive) |  |  | 46.2 µM (inactive) | > 100 µM (inactive) | > 100 µM (inactive) | > 100 µM | > 100 µM (inactive) |  | > 100 µM (inactive) | > 100 µM (inactive) | 27.1 µM (inactive)
13 | C/C=C1\C(=O)O[C@H]2C/C(C)=C/CC/C(C)=C/CC[C@@]3(C)O[C@@H]3C[C@@H]12 | > 100 µM (inactive) | > 100 µM (inactive) | > 100 µM (inactive) | > 100 µM (inactive) | > 100 µM (inactive) | > 100 µM (inactive) |  | 74.1 µM (inactive) | > 100 µM (inactive) | > 100 µM (inactive) | > 100 µM (inactive) | 85.5 µM (inactive) | > 100 µM (inactive) | > 100 µM (inactive) | 54.3 µM | > 100 µM (inactive) | > 100 µM (inactive) |  | 46.1 µM (inactive) | > 100 µM (inactive)
14 | COc1cc(OC)cc(-c2nc3cc(F)ccc3s2)c1 | > 100 µM (inactive) | 26.1 µM (inactive) | 12.1 µM (inactive) | 37.3 µM (inactive) | > 100 µM (inactive) | 55 µM (inactive) | 19 µM (inactive) | > 100 µM (inactive) | 15.8 µM (inactive) | 23.6 µM (inactive) | 13.5 µM (inactive) | 15.1 µM (inactive) | > 100 µM (inactive) | 14.5 µM (inactive) | 55.1 µM | > 100 µM (inactive) | > 100 µM (inactive) | 13.7 µM (inactive) | 21.8 µM (inactive) | 
15 | CC(=O)Nc1ccc(-c2nc3ccccc3s2)cc1O | 40.1 µM (inactive) | 34.8 µM (inactive) |  | 59.2 µM (inactive) | 29.6 µM (inactive) |  | 2.22 µM (inactive) | 21 µM (inactive) |  | 49.1 µM (inactive) |  | 37.4 µM (inactive) | 31.6 µM (inactive) | 27.3 µM (inactive) | 41.2 µM | 34.7 µM (inactive) | 17.2 µM (inactive) | 16.9 µM (inactive) | 28.6 µM (inactive) | 24.8 µM (inactive)
16 | CN1C/C(=C\c2cccs2)C(=O)/C(=C/c2cccs2)C1 | 21.9 µM (inactive) | 28.6 µM (inactive) | 19.1 µM (inactive) | 21.1 µM (inactive) | 15.6 µM (inactive) | 40.1 µM (inactive) | 75.2 µM (inactive) | 5.53 µM (inactive) |  | 20.8 µM (inactive) | 33.2 µM (inactive) | 15.6 µM (inactive) | 30 µM (inactive) | 25.9 µM (inactive) | 27.2 µM | 18.7 µM (inactive) | 21 µM (inactive) | > 100 µM (inactive) | 24.3 µM (inactive) | 
